Consider 19 molecules from publication PMC6522510 (Nature Communications, 2019).

Holding throughout (parameters): species or system AML cell lines (8); Primary HTS, single concentration about 10 uM, Cell Titer Glo viability; log10 luminescence, per cent inhibition relative to cycloheximide control
What all share (details): 72 h, relative to cycloheximide control, log10 luminescence; inhibitor
In general terms: Cellular ATP, detected with luciferase, serves as a proxy for viable cell number.

The subject of experiment [1] is MOLM-13.
For experiment [2], the system named is CMK.
For experiment [3], the system named is CHRF288-11.
The subject of experiment [4] is U937.
For experiment [5], the system named is M07e.
Experiment [6] relates to MV4-11.
Experiment [7] relates to CMS.
Experiment [8] has as its system ML-2.

Regarding `Cn1cc(C2=C(c3c4n(c5ccccc35)CCCC4)C(=O)NC2=O)c2ccccc21` [SJ000580963-1], the MOLM-13 %inh in experiment [1] stood at 2.901%. In addition, the CMK %inh in experiment [2] worked out at 59.12%. Also, the CHRF288-11 %inh in experiment [3] was found to be 3.717%. Moreover, in experiment [4], the U937 %inh is on record as 27.07%. Further, the M07e %inh in experiment [5] amounted to 29.09%. In experiment [6], the MV4-11 %inh is recorded as 8.237%. The CMS %inh in experiment [7] was determined as 9.345%. Further, the ML-2 %inh in experiment [8] came to 20.63%.
In the case of `Cn1c(=O)c(Oc2ccc(F)cc2F)cc2cnc(NCCS(C)(=O)=O)nc21` [SJ000580964-1], in experiment [1], the MOLM-13 %inh came out at 0.541%. In addition, the CMK %inh in experiment [2] was 2.942%. Besides, the CHRF288-11 %inh in experiment [3] is given as -0.5727%. The U937 %inh in experiment [4] worked out at 5.046%. Moreover, in experiment [5], the M07e %inh is recorded as -0.966%. Besides, the MV4-11 %inh in experiment [6] worked out at 3.561%. For the same molecule, the CMS %inh in experiment [7] was -1.101%. Also, the ML-2 %inh in experiment [8] was -0.4027%.
As to `Cn1cc(C2=C(c3cccc(Br)c3)C(=O)NC2=O)c2ccccc21` [SJ000580965-1], in experiment [1], the MOLM-13 %inh turned out to be 4.067%. Moreover, the CMK %inh in experiment [2] turned out to be 8.568%. The CHRF288-11 %inh in experiment [3] is 0.5807%. Besides, in experiment [4], the U937 %inh turned out to be 10.11%. Moreover, the M07e %inh in experiment [5] was determined as 3.983%. The MV4-11 %inh in experiment [6] came to 8.448%. In addition, in experiment [7], the CMS %inh is on record as 0.1878%. The ML-2 %inh in experiment [8] is recorded as -0.4526%.
Take `Cc1c(C2=C(c3cn(C)c4ccccc34)C(=O)NC2=O)c2ccccc2n1C` [SJ000580966-1]: the MOLM-13 %inh in experiment [1] is recorded as 2.992%. In addition, in experiment [2], the CMK %inh came to 42.24%. Moreover, the CHRF288-11 %inh in experiment [3] is 4.622%. Moreover, the U937 %inh in experiment [4] is given as 14.47%. In addition, the M07e %inh in experiment [5] was 4.858%. The MV4-11 %inh in experiment [6] is given as -0.1129%. In experiment [7], the CMS %inh was -2.63%. In addition, the ML-2 %inh in experiment [8] is recorded as 15.84%.
As for `Cn1cc(C2=C(c3cn(C)c4ccc(N)cc34)C(=O)NC2=O)c2ccccc21` [SJ000580967-1], in experiment [1], the MOLM-13 %inh is on record as 8.368%. In addition, the CMK %inh in experiment [2] is given as 43.44%. The CHRF288-11 %inh in experiment [3] stood at 11.3%. The U937 %inh in experiment [4] worked out at 7.089%. The M07e %inh in experiment [5] came out at 2.999%. In addition, in experiment [6], the MV4-11 %inh is given as 0.6883%. For the same molecule, in experiment [7], the CMS %inh was found to be 2.341%. Also, the ML-2 %inh in experiment [8] amounted to 0.6002%.
On to `C[C@H](O)CNc1cc(-c2[nH]c3cccnc3c2-c2ccc(F)cc2)ccn1` [SJ000580968-1], for which, in experiment [1], the MOLM-13 %inh turned out to be 2.412%. Besides, the CMK %inh in experiment [2] was found to be 8.696%. In experiment [3], the CHRF288-11 %inh is recorded as -0.7944%. In addition, the U937 %inh in experiment [4] stood at 2.723%. For the same molecule, the M07e %inh in experiment [5] is recorded as -0.9304%. The MV4-11 %inh in experiment [6] came out at 1.217%. The CMS %inh in experiment [7] is on record as -1.462%. Besides, the ML-2 %inh in experiment [8] is given as -2.119%.
As for `O=C1NC(=NCCc2ccc(Cl)cc2)S/C1=C\c1ccc2ncccc2c1` [SJ000580969-1], the MOLM-13 %inh in experiment [1] is 1.832%. The CMK %inh in experiment [2] stood at 0.9453%. Also, the CHRF288-11 %inh in experiment [3] is on record as 2.273%. In addition, in experiment [4], the U937 %inh is -0.9947%. In experiment [5], the M07e %inh was -1.208%. In addition, in experiment [6], the MV4-11 %inh came to 1.31%. Also, the CMS %inh in experiment [7] stood at 0.8596%. Besides, the ML-2 %inh in experiment [8] is -0.5014%.
For the molecule `Cn1cc(C2=C(c3cn(C)c4cc(C(=O)O)ccc34)C(=O)NC2=O)c2ccccc21` [SJ000580970-1], the MOLM-13 %inh in experiment [1] was 4.437%. The CMK %inh in experiment [2] is reported as 35.03%. Also, the CHRF288-11 %inh in experiment [3] came to 12.22%. Also, the U937 %inh in experiment [4] is reported as -0.7361%. In experiment [5], the M07e %inh is -3.399%. Also, the MV4-11 %inh in experiment [6] was 2.908%. In experiment [7], the CMS %inh is on record as -3.422%. Also, in experiment [8], the ML-2 %inh is -3.521%.
In the case of `Cn1c(=O)c(Oc2ccc(F)cc2F)cc2cnc(NC(C)(C)CO)nc21` [SJ000580971-1], the MOLM-13 %inh in experiment [1] stood at 3.693%. Besides, the CMK %inh in experiment [2] is recorded as 4.061%. Also, the CHRF288-11 %inh in experiment [3] came to 4.115%. Also, the U937 %inh in experiment [4] was found to be 1.382%. For the same molecule, the M07e %inh in experiment [5] stood at 0.06396%. Besides, the MV4-11 %inh in experiment [6] is on record as 3.201%. For the same molecule, the CMS %inh in experiment [7] was -1.762%. The ML-2 %inh in experiment [8] is reported as -1.151%.
As to `Cn1c(=O)c(Oc2ccc(F)cc2)cc2cnc(NC3CCOCC3)nc21` [SJ000580972-1], in experiment [1], the MOLM-13 %inh is on record as -0.3408%. Also, in experiment [2], the CMK %inh is 4.681%. For the same molecule, in experiment [3], the CHRF288-11 %inh worked out at 0.05441%. In addition, the U937 %inh in experiment [4] turned out to be 2.684%. Besides, the M07e %inh in experiment [5] amounted to 1.712%. Moreover, the MV4-11 %inh in experiment [6] is given as -1.036%. In addition, the CMS %inh in experiment [7] is given as 3.35%. Besides, the ML-2 %inh in experiment [8] was -0.6256%.
Consider `Nc1c(C(=O)c2cccc(C#CCN3CCOCC3)c2)cnn1-c1ccc(F)cc1` [SJ000580973-1], for which, in experiment [1], the MOLM-13 %inh worked out at 2.598%. Besides, the CMK %inh in experiment [2] is 37.5%. The CHRF288-11 %inh in experiment [3] is on record as 3.718%. Also, the U937 %inh in experiment [4] was 6.28%. In experiment [5], the M07e %inh came out at 5.913%. Also, in experiment [6], the MV4-11 %inh amounted to 1.084%. The CMS %inh in experiment [7] is listed as 0.1973%. The ML-2 %inh in experiment [8] was 0.4746%.
Regarding `O=C1NC(=NCCc2ccc(Br)cc2)S/C1=C\c1ccc2ncccc2c1` [SJ000580974-1], in experiment [1], the MOLM-13 %inh is reported as 0.9588%. In addition, in experiment [2], the CMK %inh was 0.3303%. Further, the CHRF288-11 %inh in experiment [3] was -1.536%. Also, the U937 %inh in experiment [4] is listed as -2.102%. Also, the M07e %inh in experiment [5] is reported as -0.6831%. Moreover, the MV4-11 %inh in experiment [6] came out at 2.317%. In addition, in experiment [7], the CMS %inh was -2.579%. Moreover, the ML-2 %inh in experiment [8] is listed as -0.9884%.
For the molecule `CS(=O)(=O)N1CCC(n2c(=O)c(Oc3ccc(F)cc3F)cc3cnc(NC4CCOCC4)nc32)CC1` [SJ000580975-1], the MOLM-13 %inh in experiment [1] turned out to be 0.4331%. Also, the CMK %inh in experiment [2] was determined as 5.472%. Besides, in experiment [3], the CHRF288-11 %inh was -0.8918%. For the same molecule, the U937 %inh in experiment [4] is given as 0.9443%. Also, in experiment [5], the M07e %inh is reported as 0.9741%. Further, in experiment [6], the MV4-11 %inh was 2.449%. Moreover, the CMS %inh in experiment [7] is on record as -1.205%. Also, the ML-2 %inh in experiment [8] is given as -0.9846%.
Take `COc1ccc(C2=C(c3cn(C)c4ccccc34)C(=O)NC2=O)cc1` [SJ000580976-1]: in experiment [1], the MOLM-13 %inh came to 0.836%. Also, the CMK %inh in experiment [2] was 12.52%. Further, the CHRF288-11 %inh in experiment [3] turned out to be 0.9018%. The U937 %inh in experiment [4] worked out at 2.922%. In addition, the M07e %inh in experiment [5] came to 2.491%. Besides, in experiment [6], the MV4-11 %inh is on record as 1.945%. The CMS %inh in experiment [7] was -2.297%. In addition, the ML-2 %inh in experiment [8] was -0.4189%.
With `Cn1cc(C2=C(c3cn(-c4ccccc4)c4ccccc34)C(=O)NC2=O)c2ccccc21` [SJ000580977-1], in experiment [1], the MOLM-13 %inh was 2.403%. In experiment [2], the CMK %inh is reported as 6.892%. Also, the CHRF288-11 %inh in experiment [3] was determined as 2.78%. Besides, the U937 %inh in experiment [4] came to 0.1058%. Further, in experiment [5], the M07e %inh is reported as -0.4981%. For the same molecule, the MV4-11 %inh in experiment [6] is on record as 3.843%. Moreover, the CMS %inh in experiment [7] is on record as 0.9336%. Besides, the ML-2 %inh in experiment [8] is recorded as -1.344%.
As for `Cn1cc(C2=C(c3cn(C)c4ccccc34)C(=O)NC2=O)c2ccccc21` [SJ000580978-1], the MOLM-13 %inh in experiment [1] is on record as 3.271%. The CMK %inh in experiment [2] worked out at 24.68%. Further, the CHRF288-11 %inh in experiment [3] is -0.8174%. Moreover, in experiment [4], the U937 %inh stood at 66.13%. Moreover, the M07e %inh in experiment [5] amounted to 52.37%. Further, in experiment [6], the MV4-11 %inh is listed as 62.31%. Moreover, the CMS %inh in experiment [7] was 40.67%. The ML-2 %inh in experiment [8] came out at 13.32%.
As to `Cn1cc(C2=C(c3ccccc3C(F)(F)F)C(=O)NC2=O)c2ccccc21` [SJ000580979-1], the MOLM-13 %inh in experiment [1] stood at 4.778%. Also, the CMK %inh in experiment [2] is 21.16%. For the same molecule, the CHRF288-11 %inh in experiment [3] worked out at 19.74%. Moreover, in experiment [4], the U937 %inh amounted to 1.904%. In experiment [5], the M07e %inh was -0.07648%. Besides, the MV4-11 %inh in experiment [6] turned out to be 10.38%. In experiment [7], the CMS %inh is given as 5.043%. Besides, the ML-2 %inh in experiment [8] amounted to 0.8133%.
As for `CCCn1cc(C2=C(c3cn(C)c4ccccc34)C(=O)NC2=O)c2ccccc21` [SJ000580980-1], the MOLM-13 %inh in experiment [1] is recorded as 64.41%. For the same molecule, in experiment [2], the CMK %inh is 44.58%. For the same molecule, in experiment [3], the CHRF288-11 %inh is on record as 31.26%. The U937 %inh in experiment [4] turned out to be 35.21%. For the same molecule, the M07e %inh in experiment [5] is given as 35.81%. The MV4-11 %inh in experiment [6] is reported as 13.35%. Moreover, the CMS %inh in experiment [7] is reported as 13.73%. The ML-2 %inh in experiment [8] was 30.17%.
In the case of `Cn1cc(C2=C(c3cccc(Cl)c3)C(=O)NC2=O)c2ccccc21` [SJ000580981-1], in experiment [1], the MOLM-13 %inh is -1.961%. In experiment [2], the CMK %inh was -0.373%. Moreover, the CHRF288-11 %inh in experiment [3] was found to be 3.619%. In experiment [4], the U937 %inh is 1.717%. Moreover, the M07e %inh in experiment [5] was determined as 1.057%. The MV4-11 %inh in experiment [6] is -5.929%. The CMS %inh in experiment [7] is given as -3.182%. Further, the ML-2 %inh in experiment [8] is -1.322%.
